In patent US11202779B2, “Combinations for the treatment of neoplasms using quiescent cell targeting with EGFR inhibitors” (Felicitex Therapeutics, Inc., priority 2016, dated 2021):
Read-outs that look alike come from different tables or passages of the source.

Experiments:
DYRK1B [1] = details: literature value; read-out: inhibits DYRK1B at; cited from earlier work
SW620 cells = assay: FACS analysis of cell cycle distribution by DNA content (propidium iodide), SW620; type: cell-based; details: 24 hours in FBS− media, AZ191 2.5, 5, 10 μM, Compound I-7 1.25, 2.5, 5 μM
Description: (§1) The SW620 cells were cultured and treated as described in Example 1. For propidium iodide (PI) staining, manufacturer's protocol supplied with the Guava Cell Cycle Reagent for Flow Cytometry (EMD Millipore) was followed. The measurements were performed with Guava PCA-96 flow cytometer (EMD Millipore) using the green laser for excitation at 535 nm and monitoring emission at 617 nm.
as §1, with “cultured, treated,” for “cultured”, “analyzed” for “treated”, “Examples” for “Example”

quiescent cancer cells = details: in vitro, literature; cited from earlier work
A549 cells = assay: Cell viability assay in 2D cell culture (CellTiter-Glo), A549; type: cell-based; details: Homo sapiens, A549, 96 h
Description: (§2) The following cell lines were obtained from ATCC and cultured according to the ATCC recommendations: H1975—non-small cell lung cancer cell line harboring L858R and T790M mutations; HCC827—non-small cell lung cancer cell line with E746-A750 deletion in EGFR TK; PC9—non-small cell lung cancer cell line with E746-A750 deletion in EGFR TK; A549—non-small cell lung cancer cell line with wild type EGFR; PANC1—pancreatic cancer cell line; MiaPaCa-2—pancreatic cancer cell line, and SW620—colon cancer cell line. Cell cultures of these lines were seeded into 6-well plates at 3×10^5−6×10^5 cells/well; the plated number of cells depended on cell size and rate of proliferation, aiming for approximately 50% confluency. After seeding, the cells were allowed to attach for 24 hours while incubated at 37° C. in a humidified 5% CO2 atmosphere, and then treated with compounds for desired amount of time (usually 24 hours) incubating under same conditions. Then the cells were harvested by trypsinization, pooled with the floating cells, washed in PBS, and fixed in 70% ice-cold ethanol overnight. For Acridine Orange (AO) staining, fixed cells were washed once with ice-cold PBS, re-suspended in 100 μL PBS, followed by addition of 200 μL of permeabilizing solution and 600 μL AO staining solution.
(§3) For viability analysis, cells were seeded into 96-well plates at 2×10^3-6×10^3 cells/well; depending on cell size and rate of proliferation aiming for approximately 50% confluency. Cells were allowed to attach for 24 hours incubated at 37° C. in a humidified 5% CO2 atmosphere. The treatments were performed using at least 6 different concentrations of a compound in 1:3 serial dilutions. Before reading the results cells were incubated for 96 hours in 5% CO2 incubator at 37° C. Each treatment was performed in triplicate. Results were analyzed by CellTiter-Glo™ Luminescent Cell Viability Assay (Promega, cat. # G7571) according to the manufacturer's instructions using SpectraMAX Gemini Spectrophotometer (Molecular Devices).

H1975 cells [2] = assay: Cell viability assay in 2D cell culture (CellTiter-Glo), H1975; type: cell-based; details: Homo sapiens, NCI-H1975, 96 h
PANC1 cells = assay: Cell viability assay in 2D cell culture (CellTiter-Glo), PANC1; type: cell-based; details: Homo sapiens, PANC-1, 96 h
PC9 cells = assay: Cell viability assay in 2D cell culture (CellTiter-Glo), PC9; type: cell-based; details: Homo sapiens, PC-9, 96 h
Description: as §2, §3

DYRK1B [3] = assay: Western blot, DYRK1B expression in H1975 cells; type: cell-based; details: 24 hours treatment, compared to untreated cells in FBS+ or FBS− medium
Description: (§4) For Western Blot analysis cells were seeded into 6-well plates at 5×10^5-9×10^5 cells/well (depending on the cell size and rate of proliferation), allowed to attach for 24 hours, then treated with compounds for 24 hours, and harvested. Immunoblotting was performed using conventional techniques, as described in Cell Signaling Technologies Western Blotting protocol (www.cellsignal.com).

[4] = test system: phosphorylated Y1068-EGFR; assay: Western blot, EGFR phosphorylation in H1975 cells; type: cell-based; details: 24 hours treatment
Description: as §4

[5] = test system: PC9 human non-small cell lung cancer cells; details: exposure of PC9 cells, literature; cited from earlier work
MiaPaCa-2 cells = assay: Cell viability assay in 2D cell culture (CellTiter-Glo), MiaPaCa-2; type: cell-based; details: Homo sapiens, MIA PaCa-2, 96 h
Description: as §2, §3

H1975 cells [6] = assay: FACS analysis of cell cycle distribution (Acridine Orange), H1975; type: cell-based; details: 24 hours
H1975 spheroids = assay: Cell viability assay in 3D cell culture (spheroids), H1975; type: cell-based; details: Homo sapiens, NCI-H1975, 168 h, seven days
Description: Each treatment was performed in triplicate.
Cells were incubated for 2-3 days (depending on the cell line) at 37° C. in a humidified 5% CO2 atmosphere allowing for tight spheroid formation. For the treatment, 50 μL of media was removed from each well and replaced with fresh media with compounds. […] Before reading the results, cells were incubated for the period of 4-10 days in 5% CO2 incubator at 37° C. If the treatment time exceeded 4 days, […] in each well was replaced with fresh media containing the test compound every fourth day. Each treatment was performed in duplicate. […] Prior to analysis, the spheroids were photographed at 50× magnification.

[7] = EGFR inhibitor alone (Compound I-7 not present)
[8] = EGFR inhibitor alone (Compound I-5 / I-7 not present)
[9] = Compound I-7 present at 2 μM, read-out: EC50
[10] = Compound I-7 present at 4 μM, read-out: EC50
[11] = EGFR inhibitor alone (Compound I-5 / I-7 not present), read-out: EC50
[12] = 18 nM osimertinib with 5 μM Compound I-7, FBS+ or pre-starved

For `COc1cc(N2CCN(C)CC2)ccc1Nc1nccc(-c2cn(C)c3cnccc23)n1` [AZ191], the IC50 (DYRK1B [1]) is listed as 17 nM and the “fraction of cells in quiescent state (G0), based on fraction of cells G0+G1 phase” value (SW620 cells) is listed as “no decrease in fraction of cells in quiescent state (G0)”.
In the case of `CCOC(=N)c1nc2ccc3ncnc(Nc4cc(F)c(F)cc4Cl)c3c2s1` [Compound I-7], the “fraction of cells in quiescent state (G0), based on fraction of cells G0+G1 phase” value (SW620 cells) is reported as “significant decrease in fraction of cells in quiescent state (G0)”.
In the case of `COc1ncc2cc(C(=O)Nc3cc(C(=O)NCc4cccc(Cl)c4)ccc3Cl)c(=O)[nH]c2n1` [TC-S 7004], the “effectiveness against quiescent cancer cells” value (quiescent cancer cells) is listed as “effective against quiescent cancer cells in vitro”.
Work on `CN(C)C/C=C/C(=O)Nc1cc2c(Nc3ccc(F)c(Cl)c3)ncnc2cc1O[C@H]1CCOC1` [afatinib] yielded an EC50 (A549 cells; Compound I-7 present at 3 μM) of 2600 nM, an EC50 (A549 cells; Compound I-7 present at 6 μM) of 1000 nM and an EC50 (A549 cells; [7]) of 4700 nM. It also gave an EC50 (H1975 cells [2]; Compound I-7 present at 2 μM) of 25.2 nM, an EC50 (H1975 cells [2]; Compound I-7 present at 4 μM) of 8.2 nM and an EC50 (H1975 cells [2]; [7]) of 89.4 nM. It also gave an EC50 (PANC1 cells; Compound I-7 present at 2 μM) of 1800 nM, an EC50 (PANC1 cells; Compound I-7 present at 4 μM) of 1500 nM and an EC50 (PANC1 cells; [8]) of 1900 nM. The EC50 (PC9 cells; Compound I-7 present at 3 μM) was 1.3 nM, the EC50 (PC9 cells; Compound I-7 present at 6 μM) was 0.4 nM and the EC50 (PC9 cells; [8]) was 2.1 nM.
For `COc1cc2ncnc(Nc3ccc(F)c(Cl)c3)c2cc1NC(=O)/C=C/CN1CCCCC1` [dacomitinib], the “expression of DYRK1B protein” value (DYRK1B [3]) was “induced expression of DYRK1B protein similar to or higher than that produced by serum starvation”, the EC50 (H1975 cells [2]; Compound I-7 present at 2 μM) was 88.6 nM and the EC50 (H1975 cells [2]; Compound I-7 present at 4 μM) was 34.8 nM. For the same compound, the EC50 (H1975 cells [2]; [7]) was 110 nM, the “EGFR phosphorylation (ph-Y1068 EGFR)” value [4] was “suppressed the EGFR phosphorylation” and the EC50 (PANC1 cells; [9]) was 9900 nM. The EC50 (PANC1 cells; [10]) was 7100 nM and the EC50 (PANC1 cells; [11]) was 11400 nM.
For `C#Cc1cccc(Nc2ncnc3cc(OCCOC)c(OCCOC)cc23)c1` [erlotinib], the EC50 (A549 cells; Compound I-7 present at 3 μM, read-out: EC50) was 5900 nM, the EC50 (A549 cells; Compound I-7 present at 6 μM, read-out: EC50) was 400 nM and the EC50 (A549 cells; EGFR inhibitor alone (Compound I-7 not present), read-out: EC50) was 10400 nM. The EC50 (PANC1 cells; Compound I-5 present at 2.5 μM, read-out: EC50) was greater than 30000 nM, the EC50 (PANC1 cells; Compound I-5 present at 5 μM, read-out: EC50) was 14000 nM and the EC50 (PANC1 cells; [11]) was greater than 30000 nM. For the same compound, the EC50 (PC9 cells; Compound I-5 present at 2 μM) was 9.3 nM, the EC50 (PC9 cells; Compound I-5 present at 4 μM) was 3.7 nM and the EC50 (PC9 cells; [8]) was 17.3 nM. For the same compound, the “fraction of cells in G0 (pharmacological quiescence)” value [5] was “significant increase of fraction of cells in G0”, the EC50 (MiaPaCa-2 cells; Compound I-5 present at 2.5 μM) was 6400 nM and the EC50 (MiaPaCa-2 cells; Compound I-5 present at 5 μM) was 3500 nM. The EC50 (MiaPaCa-2 cells; erlotinib alone (Compound I-5 not present)) was greater than 30000 nM.
For `CS(=O)(=O)CCNCc1ccc(-c2ccc3ncnc(Nc4ccc(OCc5cccc(F)c5)c(Cl)c4)c3c2)o1` [lapatinib], the “fraction of cells in G0 (pharmacological quiescence)” value [5] is given as “significant increase of fraction of cells in G0”.
With `C=CC(=O)Nc1cc(Nc2nccc(-c3cn(C)c4ccccc34)n2)c(OC)cc1N(C)CCN(C)C` [osimertinib] the “fraction of cells in quiescent (G0) state” value (H1975 cells [6]; 18 nM osimertinib alone, pre-incubated in FBS+ or pre-starved in FBS− medium) was “even more effective than serum starvation (FBS−) at inducing a large fraction of the cells into the quiescent (G0) state”, the “apoptotic cells (sub-G0 population)” value (H1975 cells [6]; [12]) was “significant increases in apoptotic cells” and the “fraction of cells in G0” value (H1975 cells [6]; [12]) was “reduced the fraction of cells in G0”. The “expression of DYRK1B protein” value (DYRK1B [3]) was “induced expression of DYRK1B protein similar to or higher than that produced by serum starvation”, the EC50 (H1975 cells [2]; Compound I-7 present at 2 μM) was 7.9 nM and the EC50 (H1975 cells [2]; Compound I-7 present at 4 μM) was 4.2 nM. For the same compound, the EC50 (H1975 cells [2]; [7]) was 8.7 nM, the “EGFR phosphorylation (ph-Y1068 EGFR)” value [4] was “suppressed the EGFR phosphorylation” and the EC50 (H1975 spheroids; regular growth media (FBS+), Compound I-7 not present) was 0.68 nM. It also gave an EC50 (H1975 spheroids; regular growth media (FBS+), Compound I-7 present at 2.5 μM) of 0.28 nM, an EC50 (H1975 spheroids; serum starvation (FBS−), Compound I-7 not present) of 3.3 nM and an EC50 (H1975 spheroids; serum starvation (FBS−), Compound I-7 present at 2.5 μM) of 1 nM. For the same compound, the EC50 (PANC1 cells; [9]) was 4600 nM, the EC50 (PANC1 cells; [10]) was 4500 nM and the EC50 (PANC1 cells; [11]) was 5300 nM.
With `C=CC(=O)Nc1cccc(Nc2nc(Nc3ccc(N4CCN(C(C)=O)CC4)cc3OC)ncc2C(F)(F)F)c1` [rociletinib] the EC50 (H1975 cells [2]; Compound I-7 present at 2 μM) was 22.5 nM, the EC50 (H1975 cells [2]; Compound I-7 present at 4 μM) was 14.9 nM and the EC50 (H1975 cells [2]; [7]) was 351 nM. For the same compound, the EC50 (PANC1 cells; [9]) was 9900 nM, the EC50 (PANC1 cells; [10]) was 7100 nM and the EC50 (PANC1 cells; [11]) was 11400 nM.
